Measured values reported in patent publication US20120309776A1, “PYRROLO[2,3-D]PYRIMIDINE UREA COMPOUNDS AS JAK INHIBITORS” (Pfitzer Inc., priority 2010, published 2012).

Tested on: T-cell proliferation in canine whole blood (ConA and canine IL-2 stimulated)
Test: Canine in vitro T-cell Proliferation Assay
Assay type: cell-based, beagle dogs
Conditions: Canis lupus familiaris, ConA 1 μg/ml + canine IL-2 50 ng/ml, tritiated thymidine incorporation, average assay results
Description: Introduction: T-cell activation plays a key role in a variety of inflammatory and autoimmune disorders as well as asthma, allergies and pruritus. Since T-cell activation can, in part, can be triggered by cytokines that signal through the JAK-STAT pathway, a JAK inhibitor could be effective against such diseases involving aberrant T-cell activation. […] Methods: Canine whole blood is collected in heparin sulfate tubes from beagle dogs. Whole blood (20 μL) is plated in 96-well plates (Costar) with 180 μL of DMEM complete medium (Dublecco's Modified Eagle Medium; 10% heat inactivated fetal bovine serum; 100 u/ml penicillin; 100 ug/mL streptomycin, from Gibco) containing vehicle control or test compound (0.001 to 10 μM), concanavalin A (ConA; 1 μg/ml), and canine interleukin-2 (IL-2; 50 ng/ml). Wells containing whole blood, medium with vehicle control and no ConA or IL-2 are used as background (BKG) controls. Plates are incubated at 37° C. for 48 hrs. Tritiated thymidine, 0.4 μCi/well (Perkin Elmer), is added for 20 additional hours. Plates are frozen and then thawed, washed and filtered using a Brandel MLR-96 cell harvester and prewet filter mats (Wallac 1205-401, Perkin Elmer). Filters are dried at 60° C. for one hour (Precision 16EG convection oven) and placed into filter sample bags (Wallac 1205-411, Perkin Elmer) with 10 mL of scintillant (Wallac 1205-440, Perkin Elmer). Sealed filters are counted on a LKB Wallac 1205 Betaplate liquid scintillation counter. Data are collected via Gterm Betaplate program v1.1 (Wallac copyright 1989-1990) and transformed into percent inhibition, calculated using the following formula: […]

Structure (SMILES)	IC50 [nM]
COc1nsc(NC(=O)N2CC[C@@H](C)[C@@H](N(C)c3ncnc4[nH]ccc34)C2)n1 [Example 2, (3R,4R)-N-(3-methoxy-1,2,4-thiadiazol-5-yl)-4-methyl-3-[methyl(7H-pyrrolo[2,3-d]pyrimidin-4-yl)amino]piperidine-1-carboxamide]	50
CSc1nc(NC(=O)N2CC[C@@H](C)[C@@H](N(C)c3ncnc4[nH]ccc34)C2)n(C)n1 [Example 4, (3R,4R)-4-methyl-N-[1-methyl-3-(methylsulfanyl)-1H-1,2,4-triazol-5-yl]-3-[methyl(7H-pyrrolo[2,3-d]pyrimidin-4-yl)amino]piperidine-1-carboxamide]	> 10000
C[C@@H]1CCN(C(=O)Nc2nncs2)C[C@@H]1N(C)c1ncnc2[nH]ccc12 [Example 1, (3R,4R)-4-methyl-3-[methyl(7H-pyrrolo[2,3-d]pyrimidin-4-yl)amino]-N-(1,3,4-thiadiazol-2-yl)piperidine-1-carboxamide]	28.5
Cc1noc(NC(=O)N2CC[C@@H](C)[C@@H](N(C)c3ncnc4[nH]ccc34)C2)c1C#N [Example 3, (3R,4R)-N-(4-cyano-3-methylisoxazol-5-yl)-4-methyl-3-[methyl(7H-pyrrolo[2,3-d]pyrimidin-4-yl)amino]piperidine-1-carboxamide]	> 10000
